Measured values as given in patent publication US9750728B2, “Method and pharmaceutical composition for inhibiting PI3K/AKT/mTOR signaling pathway” (TARGETED THERAPEUTICS, LLC, priority 2012, dated 2017).

Tested on: Panc-1
Experiment: Colony formation assay (clonogenic assay)
Format: cell-based
Description: 1.2. Colony formation assay (clonogenic assay) was used to analyze the effect of ZPP or Y29794 on cancer cell survival. 10^3 Panc-1 cells were plated in 100 mm petri dish in triplicate fed with 10 ml of DMEM containing 10% FBS. The cells were then treated by ZPP for 7 days and cultured for additional three weeks. Cells were then rinsed three times with PBS, fixed with 100% ethanol for 15 min, and stained with 2% crystal violet ethanol solution. The stained colonies were counted. All the results are statistically analyzed by one way ANOVA and two tailed t-test.

CC(C)c1ccc(C(=O)c2cccs2)c(SCCCCCCCCN(C)C)n1 [Y29794, [2-[8-(dimethylamino)octylsulfanyl]-6-propan-2-ylpyridin-3-yl]-thiophen-2-ylmethanone]
cell survival (colony formation) (Panc-1, Y29794 25 nM in combination with rapamycin): significantly (P<0.01) decreased | cell colonies formed at 21 days, combination (Panc-1, various concentration of rapamycin with 25 nM Y29794, 7 days (FIG. 16C legend)): synergistic reduction
